From patent US10786583B2, “Pre-saturation of the liver and subsequent administration of the contrast agent” (B. Braun Melsungen AG, priority 2013, dated 2020)
Values belong to the molecule of their own block, whether it stands above or below them.

Experiments:
[1] = Density measurement of mixtures of MCT and F6H8; assay type: physicochemical; conditions: mixture with about 61.5 wt.-% MCT, based on total weight of the oil phase
From the text: By adapting the density of the oil phase to the density of the aqueous phase coalescence phenomena of the droplets as well as sedimentation phenomena, which destabilize the emulsion, can be decreased.

[2] = Solubility of perfluorocarbon contrast agents in oil phase; assay type: physicochemical
From the text: Perfluoroctylbromide (PFOB) is a known contrast agent for the magnetic resonance spectroscopy.

Content of F6H8 in oil phase at which density of the oil mixture corresponds to the density of the aqueous phase [1]: about 38.5 wt.-%
SMILES: CCCCCCCCC(F)(F)C(F)(F)C(F)(F)C(F)(F)C(F)(F)C(F)(F)F [Example F6H8, perfluorohexyloctane]

Solubility in PFOB [2]: can be dissolved in PFOB
SMILES: FC(F)(F)C(F)(F)C(F)(F)C(F)(F)C(F)(F)C(F)(F)C(F)(F)C(F)(F)C(F)(F)C(F)(F)Br [PFDB, perfluorodecylbromide]

Solubility in MCT [2]: cannot be dissolved in MCT
SMILES: FC(F)(F)C(F)(F)C(F)(F)C(F)(F)C(F)(F)C(F)(F)C(F)(F)C(F)(F)Br [PFOB, Perfluoroctylbromide, reference compound]
